Converted amounts (≈) assume the structure as drawn.
Columns and labels:
[1] = Compound solubility; format: physicochemical; conditions: for Compound Solubility, 1 μM: solvent at 1 μM; for Compound Solubility, 10 μM: solvent at 10 μM; for Compound Solubility, 100 μM: solvent at 100 μM; for Compound Solubility, 1 mM: solvent at 1 mM; for Compound Solubility, 10 mM: solvent at 10 mM; for Compound Solubility, 16 mg/ml: solvent at 16 mg/ml
[2] = target: DksA (Salmonella typhimurium, UniProt P0A1G5); assay: DksA-dependent livJ in vitro transcription; format: biochemical; conditions: livJ promoter; for IVT: concentration showing activity
DksA, sequence (P0A1G5 whole entry): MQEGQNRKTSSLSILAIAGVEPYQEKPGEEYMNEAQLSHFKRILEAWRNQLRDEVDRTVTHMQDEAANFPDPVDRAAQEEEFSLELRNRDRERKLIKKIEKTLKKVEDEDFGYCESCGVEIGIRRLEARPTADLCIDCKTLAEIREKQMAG
Method: To measure the potency of a compound in inhibition of DksA biological function, rpsMtranscripts in vitro was determined by non-radioactive in vitro transcription reactions with qPCR analysis with divergent compounds. Briefly, 5 nM pTIM-rpsMplasmid was mixed with […] of compounds in 10 μl reaction buffer (40 mM HEPES [pH 7.4], 2 mM MgCl2, 60 mM potassium glutamate, 0.05% NP-40, 200 μM ATP, 200 μM GTP, 200 μM CTP, 200 μM UTP, and 5 nM E. coli RNA polymerase holoenzyme (NEB, Ipswich, MA) with 5 μM DksA. The in vitro transcription was carried out at 37° C. for 10 min, and then terminated at 70° C. for 10 min. To remove template DNA after treated with DNaseI, DNA-free DNA Removal kit (ThermoFisher) was used according to manufacturer's direction. The resulting materials were used as templates to generate cDNA with 100 U MMLV reverse transcriptase (Promega), 0.45 μM gene specific primer, and 20 U RNase inhibitor (Promega). The amount of cDNA synthesized for 1 h at 42° C. was quantified by real-time PCR (qRT-PCR). The copy number of specific transcripts was calculated to the standard curve generated with known gene copy concentrations. The IC50 is the concentration at which the curve passes through the 50% inhibition level. Standard deviation was calculated from 3 independent experiments.
The compounds were initially tested at 0.1 μM and 1 μM using as a target the promoter of the livJ gene that encodes a transporter of branch-chain amino acids (Table 4).

[3] = test system: Salmonella strain 14028s; assay: Minimum inhibitory concentration in EG minimal media; format: cell-based, Salmonella Typhimurium; conditions: 18 h; for Growth in EG at concentration tested 1 μg/ml / Growth in EG at concentration tested 2 μg/ml / Growth in EG at concentration tested 4 μg/ml / Growth in EG at concentration tested 8 μg/ml / Growth in EG at concentration tested 16 μg/ml / Growth in EG at concentration tested 32 μg/ml: EG minimal media, 37° C.; for MIC: Salmonella, 14028S
Method: DksA controls transcription of metabolic and virulence genes, allowing bacteria to both grow in minimum media and cause disease. Inhibition of bacterial growth in EG minimum media was used as an easy and reliable proxy of the DksA-dependent regulation of metabolism.
In a non-limiting example, wild-type Salmonella strain 14028s was grown overnight (18.5 h), and then diluted in EG minimal media to a density of about 10^5 CFU/mL. […] Each test tube was incubated at 37° C. with shaking for 18 h and bacterial growth was evaluated. The MIC value was determined as the lowest concentration of compound that inhibited growth.

| SMILES | Compound Solubility, 1 μM [1] | Compound Solubility, 10 μM [1] | Compound Solubility, 100 μM [1] | Compound Solubility, 1 mM [1] | Compound Solubility, 10 mM [1] | Compound Solubility, 16 mg/ml [1] | In vitro transcription assay result, 0.1 μM [2] | In vitro transcription assay result, 1 μM [2] | IVT [2] [µM] | Growth in EG at concentration tested 1 μg/ml [3] | Growth in EG at concentration tested 2 μg/ml [3] | Growth in EG at concentration tested 4 μg/ml [3] | Growth in EG at concentration tested 8 μg/ml [3] | MIC [3] [µg/mL] | Growth in EG at concentration tested 16 μg/ml [3] | Growth in EG at concentration tested 32 μg/ml [3] |
| --- | --- | --- | --- | --- | --- | --- | --- | --- | --- | --- | --- | --- | --- | --- | --- | --- |
| COc1cccc(CNC(=O)c2nc[nH]n2)c1OC [Compound 3, N-(2,3-dimethoxybenzyl)-1H-1,2,4-triazole-3-carboxamide] | water | water | water | water | water | DMSO | no induction | no induction | 0.1 | + | + | + | + | 32 (≈ 122 µM) |  |  |
| COc1cccc(CNC(=O)c2nc[nH]n2)c1 [Compound 7, N-(3-methoxybenzyl)-1H-1,2,4-triazole-3-carboxamide] | water | water | water | water | water | DMSO | no change | no change |  | + | + | + |  | 8 (≈ 34.4 µM) |  |  |
| O=C(Nc1cccc(OC(F)(F)F)c1)c1nc[nH]n1 [Compound 5, N-(3-(trifluoromethoxy)phenyl)-1H-1,2,4-triazole-3-carboxamide] | water | water | water | water | DMSO | DMSO | no induction | no induction | 0.1 | + | + | + | + |  | + | + |
| C[C@H](NC(=O)c1nc[nH]n1)c1ccccc1 [Compound 18, (S)-N-(1-phenylethyl)-1H-1,2,4-triazole-3-carboxamide] | water | water | water | water | water | DMSO | no induction | no induction | 0.1 | + | + | + | + |  | + | + |
| COc1ccc(CNC(=O)c2nc[nH]n2)cc1C(F)(F)F [Compound 10, N-(4-methoxy-3-(trifluoromethyl)benzyl)-1H-1,2,4-triazole-3-carboxamide] | water | water | water | water | water | DMSO | no change | no induction | 1 | + | + | + | + |  | + | + |
| O=C(NCc1ccc2c(c1)OCO2)c1nc[nH]n1 [Compound 6, N-(benzo[d][1,3]dioxol-5-ylmethyl)-1H-1,2,4-triazole-3-carboxamide] | water | water | water | water | water | DMSO | no change | no change |  | + | + |  |  | 8 (≈ 32.5 µM) |  |  |
| COc1ccc(CNC(=O)c2nc[nH]n2)cc1OC [Compound 2, N-(3,4-dimethoxybenzyl)-1H-1,2,4-triazole-3-carboxamide] | water | water | water | water | water | DMSO | no change | no change |  | + | + | + | + |  | + | + |
| CC(C)(C)c1ccc(NC(=O)c2nc[nH]n2)cc1 [Compound 13, N-(4-(tert-butyl)phenyl)-1H-1,2,4-triazole-3-carboxamide] | water | water | water | water | DMSO | DMSO | no induction | no induction | 0.1 | + | + | + | + |  | + | + |
| COc1ccc(CNC(=O)c2nc[nH]n2)cc1 [Compound 4, N-(4-methoxybenzyl)-1H-1,2,4-triazole-3-carboxamide] | water | water | water | water | water | DMSO | no change | no change |  | + | + | + |  | 8 (≈ 34.4 µM) |  |  |
| O=C(NCc1ccc(OC(F)(F)F)cc1)c1nc[nH]n1 [Compound 8, N-(4-(trifluoromethoxy)benzyl)-1H-1,2,4-triazole-3-carboxamide] | water | water | water | water | DMSO | DMSO | no induction | no induction | 0.1 | + | + | + | + |  | + | + |

— patent publication US12043601B2, “N-substituted-1H-1,2,4-triazole-3-carboxamides, analogues thereof, and methods of treatment using same” (THE REGENTS OF THE UNIVERSITY OF COLORADO, priority 2018, dated 2024)
